Legend:
Assay in all cases: relative viability (nuclei count vs DMSO), 5 days (fraction); higher = more cells survive
Adavosertib + Tozasertib = compound: C=CCn1c(=O)c2cnc(Nc3ccc(N4CCN(C)CC4)cc3)nc2n1-c1cccc(C(C)(C)O)n1 [Adavosertib] + Cc1cc(Nc2cc(N3CCN(C)CC3)nc(Sc3ccc(NC(=O)C4CC4)cc3)n2)n[nH]1 [Tozasertib] (partner 0.1 µM)
In short: (§1)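 After 5 days of treatment, lung cancer cells in 1536-well plates were fixed and stained in a single step (final 0.05% Triton X-100, 1% formaldehyde, 1 ug/ml Hoechst) and their nuclei counted on 4× images. Treatment had been applied by pin tool the day after seeding as one drug alone or as a fixed anchor-drug dose with five library-drug doses (not always all listed) in √10 steps. Relative viability is the nuclei count of treated wells divided by that of vehicle wells, and values are medians of duplicate plates.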

Nelarabine + Navitoclax = compound: COc1nc(N)nc2c1ncn2[C@@H]1O[C@H](CO)[C@@H](O)[C@@H]1O [Nelarabine] + CC1(C)CCC(c2ccc(Cl)cc2)=C(CN2CCN(c3ccc(C(=O)NS(=O)(=O)c4ccc(N[C@H](CCN5CCOCC5)CSc5ccccc5)c(S(=O)(=O)C(F)(F)F)c4)cc3)CC2)C1 [Navitoclax] (partner 0.5 µM)
In short: as §1

Nelarabine + Linsitinib = compound: COc1nc(N)nc2c1ncn2[C@@H]1O[C@H](CO)[C@@H](O)[C@@H]1O [Nelarabine] + C[C@]1(O)C[C@@H](c2nc(-c3ccc4ccc(-c5ccccc5)nc4c3)c3c(N)nccn32)C1 [Linsitinib] (partner 1 µM)
In short: as §1

Nelarabine + Palbociclib = compound: COc1nc(N)nc2c1ncn2[C@@H]1O[C@H](CO)[C@@H](O)[C@@H]1O [Nelarabine] + CC(=O)c1c(C)c2cnc(Nc3ccc(N4CCNCC4)cn3)nc2n(C2CCCC2)c1=O [Palbociclib] (partner 0.5 µM)
In short: as §1

Row | Cell Line | relative viability (Adavosertib + Tozasertib; first compound 0.01 µM) | relative viability (Adavosertib + Tozasertib; first compound 0.03162 µM) | relative viability (Adavosertib + Tozasertib; first compound 0.1 µM) | relative viability (Adavosertib + Tozasertib; first compound 0.3162 µM) | relative viability (Nelarabine + Navitoclax; first compound 0.01 µM) | relative viability (Nelarabine + Navitoclax; first compound 0.03162 µM) | relative viability (Nelarabine + Navitoclax; first compound 0.1 µM) | relative viability (Nelarabine + Navitoclax; first compound 0.3162 µM) | relative viability (Nelarabine + Navitoclax; first compound 1 µM) | relative viability (Nelarabine + Linsitinib; first compound 0.01 µM) | relative viability (Nelarabine + Linsitinib; first compound 0.03162 µM) | relative viability (Nelarabine + Linsitinib; first compound 0.1 µM) | relative viability (Nelarabine + Linsitinib; first compound 0.3162 µM) | relative viability (Nelarabine + Linsitinib; first compound 1 µM) | relative viability (Nelarabine + Palbociclib; first compound 0.01 µM) | relative viability (Nelarabine + Palbociclib; first compound 0.03162 µM) | relative viability (Nelarabine + Palbociclib; first compound 0.1 µM) | relative viability (Nelarabine + Palbociclib; first compound 0.3162 µM) | relative viability (Nelarabine + Palbociclib; first compound 1 µM)
1 | NCI-H1993 | 0.633 | 0.598 | 0.658 | 0.666 | 1.14 | 0.783 | 0.982 | 1.02 | 0.956 | 0.803 | 0.7 | 0.834 | 0.662 | 0.668 | 0.721 | 0.516 | 0.692 | 0.547 | 0.647
2 | LCLC-97TM1 | 0.22 | 0.245 | 0.195 | 0.383 | 0.428 | 0.202 | 0.458 | 0.478 | 0.351 | 0.222 | 0.163 | 0.242 | 0.225 | 0.186 |  |  | 0.299 | 0.229 | 0.265
3 | NCI-H2347 | 0.476 | 0.674 | 0.718 | 0.511 | 0.955 | 0.799 | 0.782 | 0.782 | 0.939 | 1.08 | 1.02 | 0.968 | 0.939 | 1.04 | 0.407 | 0.37 | 0.42 | 0.402 | 0.481
4 | NCI-H727 | 0.674 | 0.504 | 0.546 | 0.641 | 0.496 | 0.384 | 0.376 | 0.424 | 0.377 | 0.28 | 0.331 | 0.299 | 0.306 | 0.271 | 0.659 | 0.602 | 0.663 | 0.624 | 0.608
5 | EPLC-272H | 0.281 | 0.315 | 0.197 | 0.277 | 1.33 | 1.35 | 1.43 | 0.954 | 1.08 | 1.35 | 1.11 | 1.18 | 1.09 | 1.21 | 0.337 | 0.263 | 0.236 | 0.337 | 0.28
6 | NCI-H1355 | 0.549 | 0.553 | 0.522 | 0.615 | 1.1 | 0.818 | 0.923 | 1.01 | 0.991 | 1.04 | 0.688 | 0.739 | 0.822 | 0.887 | 0.398 | 0.316 | 0.401 | 0.401 | 0.447
7 | SK-MES-1 | 0.898 | 0.929 | 0.92 | 0.285 | 1.36 | 1.55 | 1.13 | 1.09 | 1.29 | 1.15 | 1.09 | 1.03 | 1.1 | 1.08 | 0.3 | 0.327 | 0.305 | 0.316 | 0.354
8 | LOU-NH91 | 0.694 | 0.69 | 0.735 | 0.62 | 0.786 | 0.588 | 0.616 | 0.632 | 0.69 | 1.02 | 0.953 | 0.865 | 0.886 | 0.947 | 0.576 | 0.47 | 0.524 | 0.618 | 0.578
9 | HCC-78 | 0.589 | 0.348 | 0.351 | 0.464 | 0.96 | 0.925 |  | 0.955 | 0.901 | 0.627 | 0.506 |  | 0.536 | 0.574 | 0.433 | 0.41 |  | 0.484 | 0.46
10 | NCI-H322M | 0.481 | 0.453 | 0.436 | 0.342 | 1.39 | 1.35 | 1.3 | 1.27 | 1.17 | 1.05 | 1.11 | 0.816 | 0.901 | 0.924 | 0.382 | 0.499 | 0.475 | 0.473 | 0.495
11 | HCC-15 | 0.385 | 0.409 | 0.481 | 0.444 | 0.794 | 0.633 | 0.686 | 0.724 | 0.705 | 1.06 | 0.841 | 0.904 | 0.87 | 1 | 0.847 | 0.695 | 0.788 | 0.837 | 0.677
12 | A-427 | 0.175 | 0.186 | 0.219 | 0.164 | 1.05 | 1.02 | 0.916 | 0.897 | 0.912 | 1.03 | 1.12 | 1.11 | 1.15 | 1.06 | 0.528 | 0.533 | 0.56 | 0.533 | 0.53
13 | NCI-H2228 | 0.276 | 0.277 | 0.249 | 0.204 | 1.3 | 1.11 |  | 1.33 | 0.722 | 0.519 | 0.832 |  | 0.63 | 0.898 | 1.04 | 0.538 | 0.599 | 0.937 | 0.792
14 | CAL-12T | 0.394 | 0.351 | 0.321 | 0.18 | 1.37 | 1.11 | 1.31 | 1.41 | 1.14 | 0.857 | 0.931 | 0.809 | 0.778 | 0.832 | 0.474 | 0.489 | 0.551 | 0.412 | 0.515
15 | NCI-H1793 | 0.352 | 0.386 | 0.4 | 0.253 | 0.46 | 0.552 | 0.433 | 0.47 | 0.385 | 1.3 | 0.801 | 0.863 | 0.724 | 0.84 | 0.353 |  | 0.316 | 0.398 | 0.318
16 | NCI-H460 | 0.533 | 0.495 | 0.534 | 0.721 |  | 1.68 | 1.42 | 1.37 | 1.17 | 1.09 | 0.891 | 1.12 | 1.21 | 0.731 | 0.212 | 0.213 | 0.144 | 0.162 | 0.181
17 | HARA | 0.125 | 0.128 | 0.111 | 0.0667 | 1.17 | 1.08 | 1.07 | 1.22 | 1.06 | 1.29 | 0.814 | 0.771 | 1.18 | 0.941 | 0.202 | 0.253 | 0.228 | 0.273 | 0.287
